# Measured values published in patent publication US10765114B2, “4-amino-6-(pyridyl and 2-substitutedphenyl)-picolinates and 6-amino-2-(pyridyl and 2-substitutedphenyl)-pyrimidine-4-carboxylates and their use as herbicides” (Dow AgroSciences LLC, priority 2013, dated 2020).
# System: Key Grass and Sedge Weeds as well as Grass Crops
# Test: Post-Emergent Test II (Table 6)
# Assay type: in vivo
# Details: post-emergence, 336 h, CYPSS, 70 g ai/ha, 14 days after application, read-out: Visual Growth Reduction (%) 14 Days After Application CYPSS
# In short: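 Seedlings are raised 7-21 days in Metro-Mix 360 (pH 6.0-6.8) under greenhouse conditions, then sprayed at the first or second true leaf stage. Application is 187 L/ha, with serial rates down to 1/16× of the highest. Plants are subirrigated, and percent injury is rated visually after 14 days.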
row,SMILES,pest or weed control at 70 g/ha [%]
1,"Nc1c(F)c(-c2ccc(C(F)(F)F)nc2)nc(C(=O)O)c1Cl [Compound 46, 4-amino-5-chloro-3-fluoro-6′-(trifluoromethyl)-[2,3′-bipyridine]-6-carboxylic acid]",95 to 100

# Same assay, conditions: post-emergence, 336 h, CYPSS, 140 g ai/ha, 14 days after application, read-out: Visual Growth Reduction (%) 14 Days After Application CYPSS
row,SMILES,pest or weed control at 140 g/ha [%]
1,"Nc1c(F)c(-c2ccc(C(F)(F)F)nc2)nc(C(=O)O)c1Cl [Compound 46, 4-amino-5-chloro-3-fluoro-6′-(trifluoromethyl)-[2,3′-bipyridine]-6-carboxylic acid]",95 to 100

# Same assay, conditions: post-emergence, 336 h, DIGSA: crabgrass (Digitaria sanguinalis), 70 g ai/ha, 14 days after application, read-out: Visual Growth Reduction (%) 14 Days After Application DIGSA
row,SMILES,pest or weed control at 70 g/ha [%]
1,"Nc1c(F)c(-c2ccc(C(F)(F)F)nc2)nc(C(=O)O)c1Cl [Compound 46, 4-amino-5-chloro-3-fluoro-6′-(trifluoromethyl)-[2,3′-bipyridine]-6-carboxylic acid]",95 to 100

# Same assay, conditions: post-emergence, 336 h, DIGSA: crabgrass (Digitaria sanguinalis), 140 g ai/ha, 14 days after application, read-out: Visual Growth Reduction (%) 14 Days After Application DIGSA
row,SMILES,pest or weed control at 140 g/ha [%]
1,"Nc1c(F)c(-c2ccc(C(F)(F)F)nc2)nc(C(=O)O)c1Cl [Compound 46, 4-amino-5-chloro-3-fluoro-6′-(trifluoromethyl)-[2,3′-bipyridine]-6-carboxylic acid]",95 to 100

# Same assay, conditions: post-emergence, 336 h, ECHSS, 70 g ai/ha, 14 days after application, read-out: Visual Growth Reduction (%) 14 Days After Application ECHSS
row,SMILES,pest or weed control at 70 g/ha [%]
1,"Nc1c(F)c(-c2ccc(C(F)(F)F)nc2)nc(C(=O)O)c1Cl [Compound 46, 4-amino-5-chloro-3-fluoro-6′-(trifluoromethyl)-[2,3′-bipyridine]-6-carboxylic acid]",95 to 100

# Same assay, conditions: post-emergence, 336 h, ECHSS, 140 g ai/ha, 14 days after application, read-out: Visual Growth Reduction (%) 14 Days After Application ECHSS
row,SMILES,pest or weed control at 140 g/ha [%]
1,"Nc1c(F)c(-c2ccc(C(F)(F)F)nc2)nc(C(=O)O)c1Cl [Compound 46, 4-amino-5-chloro-3-fluoro-6′-(trifluoromethyl)-[2,3′-bipyridine]-6-carboxylic acid]",95 to 100

# Same assay, conditions: post-emergence, 336 h, ORYSS (crop), 70 g ai/ha, 14 days after application, read-out: Visual Growth Reduction (%) 14 Days After Application ORYSS
row,SMILES,pest or weed control at 70 g/ha [%]
1,"Nc1c(F)c(-c2ccc(C(F)(F)F)nc2)nc(C(=O)O)c1Cl [Compound 46, 4-amino-5-chloro-3-fluoro-6′-(trifluoromethyl)-[2,3′-bipyridine]-6-carboxylic acid]",75 to 84

# Same assay, conditions: post-emergence, 336 h, ORYSS (crop), 140 g ai/ha, 14 days after application, read-out: Visual Growth Reduction (%) 14 Days After Application ORYSS
row,SMILES,pest or weed control at 140 g/ha [%]
1,"Nc1c(F)c(-c2ccc(C(F)(F)F)nc2)nc(C(=O)O)c1Cl [Compound 46, 4-amino-5-chloro-3-fluoro-6′-(trifluoromethyl)-[2,3′-bipyridine]-6-carboxylic acid]",95 to 100

# Same assay, conditions: post-emergence, 336 h, SETFA: giant foxtail (Setaria faberi), 70 g ai/ha, 14 days after application, read-out: Visual Growth Reduction (%) 14 Days After Application SETFA
row,SMILES,pest or weed control at 70 g/ha [%]
1,"Nc1c(F)c(-c2ccc(C(F)(F)F)nc2)nc(C(=O)O)c1Cl [Compound 46, 4-amino-5-chloro-3-fluoro-6′-(trifluoromethyl)-[2,3′-bipyridine]-6-carboxylic acid]",95 to 100

# Same assay, conditions: post-emergence, 336 h, SETFA: giant foxtail (Setaria faberi), 140 g ai/ha, 14 days after application, read-out: Visual Growth Reduction (%) 14 Days After Application SETFA
row,SMILES,pest or weed control at 140 g/ha [%]
1,"Nc1c(F)c(-c2ccc(C(F)(F)F)nc2)nc(C(=O)O)c1Cl [Compound 46, 4-amino-5-chloro-3-fluoro-6′-(trifluoromethyl)-[2,3′-bipyridine]-6-carboxylic acid]",95 to 100

# Same assay, conditions: post-emergence, 336 h, SORVU: grain sorghum (Sorghum vulgare), 70 g ai/ha, 14 days after application, read-out: Visual Growth Reduction (%) 14 Days After Application SORVU
row,SMILES,pest or weed control at 70 g/ha [%]
1,"Nc1c(F)c(-c2ccc(C(F)(F)F)nc2)nc(C(=O)O)c1Cl [Compound 46, 4-amino-5-chloro-3-fluoro-6′-(trifluoromethyl)-[2,3′-bipyridine]-6-carboxylic acid]",85 to 94

# Same assay, conditions: post-emergence, 336 h, SORVU: grain sorghum (Sorghum vulgare), 140 g ai/ha, 14 days after application, read-out: Visual Growth Reduction (%) 14 Days After Application SORVU
row,SMILES,pest or weed control at 140 g/ha [%]
1,"Nc1c(F)c(-c2ccc(C(F)(F)F)nc2)nc(C(=O)O)c1Cl [Compound 46, 4-amino-5-chloro-3-fluoro-6′-(trifluoromethyl)-[2,3′-bipyridine]-6-carboxylic acid]",85 to 94

# Same assay, conditions: post-emergence, 336 h, TRZSS (crop), 70 g ai/ha, 14 days after application, read-out: Visual Growth Reduction (%) 14 Days After Application TRZSS
row,SMILES,pest or weed control at 70 g/ha [%]
1,"Nc1c(F)c(-c2ccc(C(F)(F)F)nc2)nc(C(=O)O)c1Cl [Compound 46, 4-amino-5-chloro-3-fluoro-6′-(trifluoromethyl)-[2,3′-bipyridine]-6-carboxylic acid]",75 to 84

# Same assay, conditions: post-emergence, 336 h, TRZSS (crop), 140 g ai/ha, 14 days after application, read-out: Visual Growth Reduction (%) 14 Days After Application TRZSS
row,SMILES,pest or weed control at 140 g/ha [%]
1,"Nc1c(F)c(-c2ccc(C(F)(F)F)nc2)nc(C(=O)O)c1Cl [Compound 46, 4-amino-5-chloro-3-fluoro-6′-(trifluoromethyl)-[2,3′-bipyridine]-6-carboxylic acid]",85 to 94

# Same assay, conditions: post-emergence, 336 h, ZEAMX: maize, corn (Zea mays), 70 g ai/ha, 14 days after application, read-out: Visual Growth Reduction (%) 14 Days After Application ZEAMX
row,SMILES,pest or weed control at 70 g/ha [%]
1,"Nc1c(F)c(-c2ccc(C(F)(F)F)nc2)nc(C(=O)O)c1Cl [Compound 46, 4-amino-5-chloro-3-fluoro-6′-(trifluoromethyl)-[2,3′-bipyridine]-6-carboxylic acid]",85 to 94
